# How the values were obtained:
# [1] = Pharmacokinetics of cocaine and its metabolites (literature); conditions: rat, in vivo, ip; i.p. cocaine, extrapolated
# 5-HT release in NAcc [2] = assay: In vivo microvoltammetry, 5-HT release in NAcc (risperidone studies); set-up: species or system Sprague-Dawley Rattus Norvegicus; conditions: Subacute, cocaine 10 mg/kg i.p. on Day 1
# Description: In vivo microvoltammetry was used to detect dopamine (DA) and serotonin (5-HT) release from Nucleus Accumbens (NAcc) of freely moving, male, Sprague Dawley laboratory rats, while animals' locomotor (forward ambulations) and stereotypic behavior (fine movements of sniffing and grooming) were monitored at the same time with infrared photobeams. Monoamine release mechanisms were determined by using a depolarization blocker, gamma-butyrolactone (γBL). Miniature carbon sensors, BRODERICK PROBE® Lauric Acid Microelectrodes, smaller than a human hair, were used in conjunction with a semidifferential electrochemical circuit, to detect release of each monoamine in separate signals and within seconds. […] The hypothesis for the present studies is derived from a growing body of evidence that cocaine-induced psychosis and schizophrenic psychosis share similar neurochemical and behavioral manifestations.
# Animals were purchased from Charles River Laboratories, Kingston, N.Y. and were housed in our animal care facilities for two weeks before surgery was performed. The Animal Care Facility operates under the auspices of the CUNY, City College Institutional Animal Care and Use Committee (IACUC) in compliance with National Institute of Health (NIH) guidelines. The weight range for the animals, at the time of the studies, was 350-475 g. Animals were group housed before surgery, individually housed after surgery and fed Purina Rat Chow and water ad libitum. A twelve hr dark-light cycle was maintained both in the housing of the animals and throughout the experimental studies. […] A Ag/AgCl reference electrode was placed in contact with dura, 7 mm anteriorally and contralaterally to the indicator microelectrode. A stainless steel auxiliary microelectrode, was placed in contact with dura.
# (§1) In vivo microvoltammetric studies on conscious Sprague-Dawley laboratory rats were begun nine to fifteen days after the aseptic surgical operations were performed. On each experimental day, animals were placed in a Plexiglas-copper faradaic chamber. The three-microelectrode assembly, enclosed within the animal's prosthetic acrylic cap, was connected to a CV37 detector by means of a mercury commutator (Br. Res. Instr., Princeton, N.J.), a flexible cable, and a mating connector (BJM Electronics, Staten Island, N.Y.). The CV37 detector was electrically connected to a Minigard surge suppresser (Jefferson Electric, Magnetek, N.Y.) which was then connected to an electrical ground in isolation. […] Each animal was used as its own control. In vivo microvoltammetric scans were recorded in sec and repeated every five min for a period of 2 hrs before each treatment and a period of two hrs after each treatment.
# The first hr pre-drug, allowed exploratory behavior. Exploratory behavior is defined as open-field behavior of ambulations (forward locomotion) and stereotypy (fine movements of sniffing and grooming), wherein animals respond to the stimuli of a novel environment with a high frequency of behavioral counts. The second hr pre-drug allowed the animal to become habituated before treatment. […] In the acute studies, each drug was administered […]. For the subacute studies, twenty four hrs later, the animals were again placed in the faradaic behavioral chamber and no further drug was administered. Each animal was monitored for possible recovery, withdrawal or after-effects. of each treatment WHILE open-field behaviors of locomotions and stereotypy were monitored with computerized infrared photocell beams which surround the faradaic chamber.
# 5-HT release in NAcc [3] = assay: In vivo microvoltammetry, 5-HT release in NAcc (clozapine studies); set-up: species or system Sprague-Dawley Rattus Norvegicus
# Description: (§2) There is an increasing awareness that a psychosis, similar to that of schizophrenic psychosis, can be derived from cocaine addiction. […] Release mechanisms for monoamines, were determined by using a depolarization blocker, gamma-butyrolactone (γBL). […] Acute and Subacute studies were performed for each treatment group.
# (§3) The stereotaxic equipment was purchased from David Kopf Instruments, Tujunga, Calif. A Ag/AgCl reference electrode was placed in contact with dura, 7 mm anteriorally and contralaterally to the indicator microelectrode. A stainless steel auxiliary microelectrode was placed in contact with dura. BRODERICK PROBE® microelectrodes were manufactured on site.
# as §1, with “the animal was” for “animals were”, “control. Changes in synaptic concentrations of DA and 5-HT are presented as percent change (% of control) in order to minimize normal between-animal variations. […]” for “control.”
# (§4) Potentials were applied with a CV37 detector (BAS, West Lafayette, Ind.). Potentials were applied from −0.2V to +0.4V with respect to a Ag/AgCl (1M NaCl) electrode, at a scan rate of 10 mV/sec at time constants of 5 and 1 tau. One scan was completed in 60 sec. Non-faradaic charging current was eliminated in the first 25 sec.
# (§5) Calibration curves were determined experimentally, in vitro, in a freshly prepared deoxygenated physiological saline-phosphate buffer solution (0.01 M, pH=7.4). We use ultra pure Nitrogen (N2) (T. W. Smith Corp., Bklyn, N.Y.) to deoxygenate the buffer solution. […] Calibration studies were also performed in freshly prepared deoxygenated buffer solutions containing phosphotidylethanolamine (PEA), combined with bovine serum albumin (BSA) (Sigma Aldrich, St. Louis, Mo.), a solution which closely mimics brain constituents. […] Detection limits for basal synaptic concentrations of DA and 5-HT in NAcc were 12 nM and 2 nM respectively.
# DA release in NAcc = assay: In vivo microvoltammetry, DA release in NAcc (clozapine studies); set-up: species or system Sprague-Dawley Rattus Norvegicus; conditions: Subacute, cocaine 10 mg/kg i.p. on Day 1, hr period of study
# Description: as §2, §3
# as §1, with “the animal was” for “animals were”, “control. Changes in synaptic concentrations of DA and 5-HT are presented as percent change (% of control) in order to minimize normal between-animal variations. […]” for “control.”
# as §4, §5
smiles,measurement,setting,value
"COC(=O)[C@H]1[C@@H](OC(=O)c2ccccc2)C[C@@H]2CC[C@H]1N2C [Cocaine, cocaine]",half-life,[1],~2 h
same,Decrease in 5-HT release on Day 2 compared to drug effect on Day1,5-HT release in NAcc [2],about 75%
same,"Maximum decrease in 5-HT below baseline, Subacute",5-HT release in NAcc [3]; 24 hr after cocaine 10 mg/kg i.p.,40%
same,Decrease in 5-HT release on Day 2 compared to drug effect on Day1,"5-HT release in NAcc [3]; Subacute, cocaine 10 mg/kg i.p. on Day 1, second half hour of the study",approximately 150%
same,Decrease in DA release on Day 2 compared to drug effect on Day 1,DA release in NAcc,about 80%

# — patent US20070270403A1 (priority 2003, published 2007)
